# Measurements taken from patent publication US20250093270A1, “Method for Detecting Enzyme Activity and Fluorescent Probe Used in Said Method” (priority 2022, published 2025).
# Legend:
# [1] = Water-octanol distribution experiment (probe and GSH supplemented with octanol and water); format: physicochemical; conditions: for distribution to octanol (lipid-soluble solvent) side: water-octanol, with GSH
# [2] = Microdevice compatibility: fluorescence image of a microdevice loaded with probe and reacted with a thiol (leakage to oil, adsorption to well); conditions: for adsorption to the microdevice (inner wall of the reaction vessel / well): reaction vessel formed of CYTOP; for leakage of the probe enclosed in the well of the microdevice to the oil: sealing oil
# Description: (§1) An enzyme stock solution was diluted with an assay buffer containing a fluorescent probe. Next, 40 μL of a reaction mixture was added to the microdevice (Simoa disk; Quanterx Corporation). Next, 80 μL of FC-70 (Sigma-Aldrich) was introduced into the microdevice to wash off the excess reaction mixture and form W/O droplets. A fluorescence signal of the catalytically produced fluorescent dye was measured under a fluorescence microscope, and the enzyme activity in the chamber was measured.
# (§2) Fluorescence images were acquired using a 20× dry objective (Plan Apo 20x), an sCMOS camera (ORCA-FusionC14440, Hamamatsu Photonics K.K.), a white LED lighting unit (X-Cite Xylis, Opto Science, Inc.), and a fluorescence microscope (Ti2, Nikon Corporation) equipped with a motorized stage. In the analysis, measurement was performed using a solution containing sSiR (10 μM) as an internal standard and the focus was adjusted using fluorescence. Images were acquired in tile scan mode at full focus.
# FIG. 5(a) illustrates a photograph of a state in which each of three kinds of probes containing 2- and 6-position unsubstituted BODIPY and GSH are supplemented with octanol and water. FIG. 5(b) illustrates a fluorescence image of a microdevice equipped with a probe and reacted with a thiol.
# FIG. 5(d) illustrates fluorescence images of a microdevice containing human plasma that was loaded with a fluorescent probe (30 μM) in HEPES-buffer (10 mM, pH 7.4, containing 0.1% CHAPS) and incubated at 37° C. for 1.5 hours.
# FIG. 7(a) illustrates a photograph (water-octanol distribution experiment) of a state in which each probe and GSH are supplemented with octanol and water. FIG. 7(b) illustrates a fluorescence image of a microdevice equipped with a probe and reacted with a thiol.
# (§3) The image was acquired after incubation at 25° C. for 30 minutes.
# cholinesterase (ChE) = conditions: blood diluted to 1/10,000; corresponding to a total enzyme concentration of 1 pM
# Description: as §1, §2
# FIG. 5(c) illustrates a schematic diagram of a coupled assay of an acetylthiocholine system for detection of cholinesterase (ChE) activity.
# as §3
# The upper view is a fluorescence image of a microdevice equipped with a probe (30 μM), acetylthiocholine (1 mM), and a 1/10,000-fold diluted plasma sample of a healthy human subject. […]
# [3] = Comparison of water solubility by difference in elution time of LC-MS (C18); format: physicochemical; conditions: C18, ammonium formate/acetonitrile gradient
# Description: FIG. 10 illustrates the analysis of a mixture of five compounds by LC-MS and the extracted ion chromatogram of each compound shown with the display color. The results of the diphosphonic acid form, the dicarboxylic acid form, the disulfonic acid form, the monosulfonic acid form, and the monocarboxylic acid form are shown from the left.
# The compound was eluted with a linear gradient of A/B=100/0 at 0.5 minutes and 100/0 to 0/100 at 3 minutes detected at 500 nm (eluent A: H2O containing 10 mM ammonium formate; eluent B: acetonitrile 80%, H2O 20% containing 10 mM ammonium formate).
# acetylcholinesterase = assay: Acetylthiocholine coupled assay in a microdevice with the nitrophenol-type probe; format: biochemical; conditions: probe 1 μM, acetylthiocholine iodide 1 mM, human plasma 1,000-fold dilution, 90 minutes at 37° C.
# Description: The images were acquired after 90 minutes at 37° C.
Compound,adsorption to the microdevice (inner wall of the reaction vessel / well) [2],leakage of the probe enclosed in the well of the microdevice to the oil [2],other results
"2,6-diCO2H Nitroolefin BODIPY [compound 9]",the same result as in Example 1,,distribution to octanol (lipid-soluble solvent) side [1]: partially observed
"2,6-diPO3H2 Nitroolefin BODIPY [compound 17]",no adsorption to the microdevice was observed,,λ (cholinesterase (ChE)): 0.03; water solubility evaluated by elution time of LC-MS [3]: greatly improved; water solubility ([2]; inferred from behaviour in the microdevice): high water solubility
"2,6-sulfo-nitroolefin BODIPY [compound 2]",not observed,suppressed,
2-CO2H Nitroolefin BODIPY [compound 4],the same result as in Example 1,,lipid solubility [1]: particularly highly lipid-soluble; distribution to octanol (lipid-soluble solvent) side [1]: a large amount of the monocarboxylic acid form was distributed to octanol
2-sulfo-nitroolefin BODIPY [compound 1],adsorption of the probe to the inner wall of the reaction vessel,suppressed,
"8-(p-nitroolefin)-BODIPY [2- and 6-position unsubstituted BODIPY, reference compound]",,dissolved in oil,lipid solubility [1]: high lipid solubility
COc1cc(OC)c(C2=C3C=CC(=O)C=C3[Si](C)(C)c3cc(Oc4ccc(C)cc4[N+](=O)[O-])ccc32)cc1C [2.4-dinitro sTM],,,detection of acetylcholinesterase activity in blood (acetylcholinesterase): detected
